Data as given in patent US20250002960A1, “COMPOSITIONS AND METHODS FOR NUCLEIC ACID EXTENSION” (Pacific Biosciences of California, Inc., priority 2023, published 2025).
Where two headings read alike, the source gives them in different places.

How the values were obtained:
[1] = system: NO bond at the 3′ position of a polynucleotide; assay: Octet/CE cyclic extension assay (SBB extension cycles, extended primer length read by capillary electrophoresis); type: biochemical
From the text: The polynucleotides were Cy3-primers hybridized to biotinylated template DNA which were in turn bound to streptavidin coated tips of the Octet system. The Octet system move a set of 8 tips between the wells of a heated 96-well plate, for a set number of SBB extension cycles. Each cycle included an IMG step under conditions at which fluorescent nucleotides of ternary complexes could be imaged, an RTN step in which amineoxy terminated nucleotides were incorporated at the 3′ end of the primer by a polymerase, a wash step that removes excess nucleotides, and a CLV step that exposes the amineoxy terminated extended primer to a deblocking agent or candidate. The length of extended polynucleotides were then detected by capillary electrophoresis (CE), as described in US Patent Pub. No. 2019/0241945, the content of which is incorporated herein.
Polynucleotide sequence was synthesized using the Octet/CE method where non-extendable polynucleotides having a 3′ amineoxy group were used to reversibly stop extension, as shown in the workflow scheme of FIG. 1A.
(§1) CDP was formulated with a number of different buffers at different pH and various different amines as solubility enhancers. 47 formulations were made and tested. In general, CDP was dissolved in water and loaded onto Dowex 50™ cation exchange resin, and incubated for a few minutes. The resin was eluted with an aqueous solution of the amine solubility enhancer. The resulting solution was either used directly in Octet/CE assays or dried form a solid that was very soluble in water.
A number of other carbonyl compounds were test for their ability to cleave the NO bond at the 3′ position of a polynucleotide, according to the assay design shown in FIG. 1A.
Deblocking candidates were tested at various concentrations, generally between 1 and 100 mM (e.g., at 1 mM, 2 mM, 4 mM, 8 mM, 20 mM, 35 mM, 40 mM, 70 mM, and/or 100 mM for different candidates), in acetate (1 M) and tris (0.2 M) buffers, and buffered at pH 6 or 8, with and without amine counterion.

[2] = system: library of polynucleotides; assay: Sequencing-by-binding run, On/Off signal intensity by cycle; type: biochemical; settings: after 150 cycles, CDP versus SOP (sodium NO2)
Protocol: A library of polynucleotides were sequenced in a sequencing-by-binding workflow, and On/Off signal intensity was measured in each sequencing cycle, as described in US Patent Pub. No. 2020/0032317, the content of which is incorporate herein. Specifically, ‘on’ signal intensity (corresponds to the binding of the cognate nucleotide) and ‘off’ signal intensity (corresponds to the binding of the non-cognate nucleotide) in each SBB cycle. By using [NaNO2] 2 M and considering pH 5.2 and based on Henderson-Hasselbalch equation, we calculated that 18 mM of the nitrous acid exists in CLV (Cleave) reagent. Although, this cleave formulation is efficient in converting dNTP-RT to dNTP on the sequencing strand, however, it may have one or more disadvantages, such as instability, corrosivity, and/or DNA damage. Regarding instability: nitrous acid in our current CLV reagent degrades and produces nitrogen oxide gas (NOx) which weaken strength of the deblocking reagent. Nitrous acid is very corrosive and has […] with plastics consumables and instruments.
Y axis is on/off intensities. […] A library of polynucleotides were sequenced in a sequencing-by-binding workflow, and On/Off signal intensity was measured in each sequencing cycle, as described in US Patent Pub. […]

[3] = Solubility of the deblocking agent in the deblocking composition; type: physicochemical; settings: in words
Protocol: as §1

[4] = compared to SOP cleave in sodium acetate buffer, in words

Row | Compound | Extension at 40 C. in 37 cycles Octet CE assay [1] | cleavage of NO bond (deblocking, extension in multiple cycles) ([1]; in words) | Extension at 52 C. in 37 cycles octet/Ce assay [1] [bp Extension] | further results
1 | O=C(P(=O)(O)O)P(=O)(O)O [CDP, Carbonyl diphosphonate] | 37 bp Extension | deblocking | – | cleavage of NO bond (deblocking, extension in multiple cycles) [1]: comparable to NaNO2; negative phasing ([1]; 37 cycles of extension): 0.21%; positive phasing ([1]; 37 cycles of extension): 0.17%; negative dephasing on electropherogram [1, 4]: higher negative dephasing; positive dephasing on electropherogram [1, 4]: higher positive dephasing; dephasing of product ([1]; compared to SOP, in words): minimal dephasing; signal to noise ratio [2]: comparable; solubility issue [3]: slight solubility issue
2 | O=Cc1ccc(S(=O)(=O)[O-])cc1S(=O)(=O)[O-].[Na+].[Na+] [Di sodium 4-formylbenzene-1,3-disolfonate] | 3 bp Extension | deblocking | 3 | –
3 | CCC(=O)CP(=O)([O-])[O-].[Na+].[Na+] [Di sodium (2-oxobutyl)phosphonate] | 4 bp Extension | deblocking | 4 | –
4 | CC(=O)P(=O)([O-])[O-].[Na+].[Na+] [Di sodium acetylphosphonate] | 12 bp Extension | deblocking | 3 | –
5 | CNC(=O)NC [Dimethyl urea, reference compound] | No Extension | – | – | –
6 | CC(=O)OP(=O)([O-])[O-].[K+].[Li+] [LiK Aceyl Phosphate, reference compound] | No Extension | – | – | –
7 | CS(=O)(=O)CC(=O)c1ccccc1 [Methyl sulfonyl acetophenone] | 5 bp Extension | deblocking | 5 | –
8 | O=N[O-].[Na+] [NaNO2, sodium nitrite, reference compound] | – | – | – | negative phasing [1]: 0.04%; positive phasing [1]: 0.05%
9 | COP(=O)([O-])C(C)=O.[Na+] [methyl acetylphosphonate, methyl acetylphosphonate CH3—CO—PO(Ome)—O^− Na^+, reference compound] | No Extension | – | – | –
10 | Hydroxycarbamide [reference compound] | No extension | – | – | –
